According to patent publication US20040058948A1, “Mappicine analogs, methods of inhibiting retroviral reverse transcriptase and methods of treating retroviruses” (priority 2002, published 2004):

Experiments:
[1] = target: T1, RNA-dependent DNA polymerase activity of HIV reverse transcriptase (Human immunodeficiency virus type 1 group M subtype B, UniProt P04585); assay: RNA-dependent DNA polymerase activity assay of HIV reverse transcriptase; type: biochemical, HIV-1; details: 10 μM inhibitor concentration, activity with analog / without analog x 100
T1 construct: made in house
Procedure: In separate, representative assays, mappicine analogs were tested for their ability to inhibit the RNA-dependent DNA polymerase activity of HIV reverse transcriptase and for their ability to inhibit the RNase H activity of HIV reverse transcriptase. The assay for RNA-dependent DNA polymerase activity is discussed in Borkow, G. et al., “Inhibition of the Ribonuclease H and DNA Polymerase Activities of HIV-1 Reverse Transcriptase by N-(4-tert-Butylbenzoyl)-2-hydroxy-1-naphthaldehyde Hydrazone,” Biochemistry 1997, 36, 3179-3185, a copy of which is attached hereto, and the disclosure of which is incorporated herein by reference. Assays were carried out in the absence and in the presence of mappicine analogs (10 μM final concentration). The results are reported as % residual activity, which is the RNA-dependent DNA polymerase activity of the enzyme in the presence of the mappicine analog divided by the RNA-dependent activity of the enzyme in the absence of the mappicine analog, multiplied by 100.

[2] = target: RNase H activity of HIV reverse transcriptase (Human immunodeficiency virus type 1 group M subtype B, UniProt P04585); assay: Fluorescence (FRET)-based RNase H activity assay of HIV reverse transcriptase; type: biochemical, HIV-1; design: final concentration of 2.5 nM of the p51/p66 RT heterodimer in the assay; made in house; details: 10 μM inhibitor concentration, activity with analog / without analog x 100
Procedure: Recently, a fluorescence-based assay to perform preliminary screens in search of HIV RNase H inhibitors has been developed. The assay, which is carried out in 96-well microplates and is adaptable to robotics, is the first high-throughput screen for RNase H and is described in further detail in the Experimental section. HIV-1 RT and human RNase H were cloned, and thus comparative analysis of inhibitor action could be conducted simultaneously.
The assay for RNase H activity of HIV reverse transcriptase was the fluorescence-based assay described in detail in the Experimental section and discussed in U.S. Provisional Patent Application Serial No. 60/318,359. Assays were carried out in the absence and in the presence of mappicine analogs (10 μM final concentration). The results are reported as % residual activity, which is the RNase H activity of the enzyme in the presence of the mappicine analog divided by the RNase H activity of the enzyme in the absence of the mappicine analog, multiplied by 100. Alternatively, the results are reported as % inhibition, which is calculated as the ratio of the RNase H activity of the enzyme in the presence of the mappicine analog to the enzyme activity in the absence of the mappicine analog, multiplied by 100, and then subtracting this number from 100.
Assay for Ribonuclease H Activity Based on Fluorescence Resonance Energy Transfer (FRET)
Preparation of the Fluorophore-RNA/Quencher-DNA Hybrid Duplex Substrate.
The RNA/DNA hybrid duplex substrate for use in the assay comprises an RNA oligonucleotide of sequence 5′-GAU CUG AGC CUG GGA GCU-3′, modified at the 3′-end with Aminolink-2 and derivatized with fluorescein isothiocyanate, to provide a modified RNA oligonucleotide of the sequence 5′-GAU CUG AGC CUG GGA GCU-fluorescein-3′, annealed to a complementary DNA oligonucleotide of the sequence 5′-AGC TCC CAG GCT CAG ATC-3′ modified at the 5′-end with Aminolink-2 and derivatized with the FRET acceptor DABCYL succinimidyl ester, to provide a modified DNA oligonucleotide of the sequence 5′-DABCYL-AGC TCC CAG GCT CAG ATC-3′.
To prepare the 3′-fluorescein-RNA/5′-DABCYL-DNA hybrid duplex substrate, a known amount of 3′-fluorescein-RNA was dissolved in 20 mM Tris buffer (pH 8.0, 37° C.) to provide a final concentration of 5 μM. Two equivalents of the 5′-DABCYL-DNA oligonucleotide were added, and the mixture was heated to 90° C. for 5 min and cooled slowly to room temperature to allow duplex formation. The positioning of the fluorescein donor at the 3′-end of the RNA oligonucleotide and the DABCYL acceptor at the 5′-end of the DNA oligonucleotide provides a very close proximity of the donor and acceptor that results in a very intense quenching of the fluorescein emission in the intact RNA/DNA hybrid duplex substrate due to the spectral overlap of the fluorescence emission of fluorescein with the absorption spectrum of DABCYL. In addition, DABCYL is non-fluorescent, and thus cannot contribute any light emission. Both of these factors result in a very low background and provide a high signal-to-noise in the assay measurements. The ratio of the donor fluorescence in the absence and in the presence of its quencher is approximately fifteen-fold.
Microplate Assay Protocol for the Measurement of RNase H Activity Using the RNA/DNA Hybrid Duplex Substrate.
Reaction assay mixtures contained 5 μl of a stock solution of 2.5 μM RNA/DNA hybrid duplex substrate added to 85 μl of assay buffer (50 mM Tris, pH 8.0, 37° C., containing 60 mM KCl and 2.5 mM MgCl2), prepared in the wells of a 96-well fluorescence microtiter plate, and warmed to 37° C. using the temperature control of the SpectraMax Gemini XS microplate spectrofluorometer (Molecular Devices). Reactions were started by the addition of 5 μl of a solution of recombinant HIV-1 reverse transcriptase (usually providing a final concentration of 2.5 nM of the p51/p66 RT heterodimer in the assay), and mixing using the automatic mixing function of the microplate spectrofluorometer. […]

Structure (SMILES) | Residual activity (%) Polymerase [1] | Residual activity (%) RNase H [2] | Residual activity (%) Polymerase ([1]; 10 µM) | Residual activity (%) RNase H ([2]; 10 µM)
CCCCCCc1c2c(nc3ccc(F)cc13)-c1cc(C(O)CCC3CCCCC3)c(C)c(=O)n1C2 (stereo not shown) [8Bδ] | 90% | 112% |  | 
COc1ccc2nc3c(c([Si](C)(C)C)c2c1)Cn1c-3cc(C(O)CCC2CCCCC2)c(C)c1=O (stereo not shown) [5Dδ] | 57% | 96% |  | 
Cc1ccc2nc3c(c([Si](C)(C)C(C)(C)C)c2c1)Cn1c-3cc(C(=O)CCC2CCCCC2)c(C)c1=O [4Cδκ] | 52% | 96% |  | 
CCC(O)c1cc2n(c(=O)c1C)Cc1c-2nc2ccccc2c1-c1ccccc1 (racemic) [3Aα] | 90% | 97% |  | 
CCC(=O)c1cc2n(c(=O)c1C)Cc1c-2nc2ccc(C)cc2c1[Si](C)(C)C(C)(C)C [4Cακ] | 52% | 90% |  | 
Cc1c(C(=O)C(C)(C)C)cc2n(c1=O)Cc1c-2nc2ccccc2c1-c1ccccc1 [3Aβκ] | 64% | 94% |  | 
Cc1c(C(O)Cc2ccccc2)cc2n(c1=O)Cc1c-2nc2ccc(F)cc2c1[Si](C)(C)C (stereo not shown) [5Bε] | 49% | 88% |  | 
Cc1c(C(=O)C(C)(C)C)cc2n(c1=O)Cc1c-2nc2ccccc2c1[Si](C)(C)C [5Aβκ] | 47% | 97% |  | 
Cc1c(C(O)C(C)(C)C)cc2n(c1=O)Cc1c-2nc2ccccc2c1-c1ccccc1 (racemic) [3Aβ] | 54% | 95% |  | 
Cc1c(C(O)C(C)(C)C)cc2n(c1=O)Cc1c-2nc2ccccc2c1[Si](C)(C)C(C)(C)C (racemic) [4Aβ] | 71% | 101% |  | 
CCCCCCc1c2c(nc3ccccc13)-c1cc(C(O)CCC3CCCCC3)c(C)c(=O)n1C2 (stereo not shown) [8Aδ] | 72% | 89% |  | 
CCC(O)c1cc2n(c(=O)c1C)Cc1c-2nc2ccccc2c1[Si](C)(C)C (stereo not shown) [5Aα] |  |  | 32% | 93%
Cc1ccc2nc3c(c([Si](C)(C)C(C)(C)C)c2c1)Cn1c-3cc(C(O)C(C)(C)C)c(C)c1=O (stereo not shown) [4Cβ] | 67% | 94% |  | 
CCC(=O)c1cc2n(c(=O)c1C)Cc1c-2nc2ccc(OC)cc2c1[Si](C)(C)C [5Dακ] | 50% | 86% |  | 
Cc1c(C(O)Cc2ccccc2)cc2n(c1=O)Cc1c-2nc2ccc(F)cc2c1[Si](C)(C)C(C)(C)C (stereo not shown) [4Bε] | 61% | 89% |  | 
COc1ccc2nc3c(c(-c4ccccc4)c2c1)Cn1c-3cc(C(O)CCC2CCCCC2)c(C)c1=O (racemic) [3Dδ] | 60% | 67% |  | 

Structure (SMILES) | Residual activity (%) Polymerase [1] | Residual activity (%) RNase H [2] | Residual activity (%) Polymerase ([1]; 10 µM) | Residual activity (%) RNase H ([2]; 10 µM)
CCC(O)c1cc2n(c(=O)c1C)Cc1c-2nc2ccc(OC)cc2c1[Si](C)(C)C (racemic) [5Dα] | 88% | 78% |  | 
CCC(=O)c1cc2n(c(=O)c1C)Cc1c-2nc2ccccc2c1-c1ccccc1 [3Aακ] | 64% | 87% |  | 
CCCCCCc1c2c(nc3ccc(C)cc13)-c1cc(C(O)Cc3ccccc3)c(C)c(=O)n1C2 (racemic) [8Cε] | 76% | 76% |  | 
CCCCCCc1c2c(nc3ccc(C)cc13)-c1cc(C(=O)C(C)(C)C)c(C)c(=O)n1C2 [8Cβκ] | 66% | 95% |  | 
Cc1c(C(=O)CCC2CCCCC2)cc2n(c1=O)Cc1c-2nc2ccc(F)cc2c1[Si](C)(C)C [5Bδκ] | 46% | 78% |  | 
CCC(O)c1cc2n(c(=O)c1C)Cc1c-2nc2ccc(F)cc2c1-c1ccccc1 (racemic) [3Bα] | 54% | 83% |  | 
CCCCCCc1c2c(nc3ccc(C)cc13)-c1cc(C(O)CC)c(C)c(=O)n1C2 (racemic) [8Cα] | 84% | 65% |  | 
COc1ccc2nc3c(c(-c4ccccc4)c2c1)Cn1c-3cc(C(O)C(C)(C)C)c(C)c1=O (stereo not shown) [3Dβ] | 85% | 70% |  | 
Cc1c(C(O)C(C)(C)C)cc2n(c1=O)Cc1c-2nc2ccc(F)cc2c1[Si](C)(C)C (racemic) [5Bβ] | 74% | 102% |  | 
CCC(=O)c1cc2n(c(=O)c1C)Cc1c-2nc2ccc(C)cc2c1[Si](C)(C)C [5Cακ] | 93% | 109% |  | 
Cc1ccc2nc3c(c(-c4ccccc4)c2c1)Cn1c-3cc(C(O)Cc2ccccc2)c(C)c1=O (racemic) [3Cε] | 76% | 101% |  | 
COc1ccc2nc3c(c([Si](C)(C)C(C)(C)C)c2c1)Cn1c-3cc(C(O)C(C)(C)C)c(C)c1=O (racemic) [4Dβ] | 47% | 91% |  | 
Cc1c(C(=O)C(C)(C)C)cc2n(c1=O)Cc1c-2nc2ccc(F)cc2c1-c1ccccc1 [3Bβκ] | 61% | 95% |  | 
CCC(=O)c1cc2n(c(=O)c1C)Cc1c-2nc2ccccc2c1[Si](C)(C)C(C)(C)C [4Aακ] | 43% | 76% |  | 
COc1ccc2nc3c(c([Si](C)(C)C)c2c1)Cn1c-3cc(C(=O)C(C)(C)C)c(C)c1=O [5Dβκ] | 64% | 86% |  | 
CCC(O)c1cc2n(c(=O)c1C)Cc1c-2nc2ccc(F)cc2c1[Si](C)(C)C(C)(C)C (racemic) [4Bα] | 98% | 108% |  | 
